Converted amounts (≈) assume the structure as drawn.
Key:
[1] = molecular target: T1, immunoproteasome subunit LMP7 (Homo sapiens, UniProt P28062); assay: Proteasome active-site ELISA (ProCISE), LMP7, MOLT-4 lysate; type: biochemical; settings: MOLT4 lysate, 1 h continuous treatment, 25° C.
T1 construct: Lysate from the human acute lymphoblastic leukemia cell line, MOLT-4; endogenous in cells; host or cells: MOLT-4
Experimental: (§1) Test compounds were serially diluted in DMSO at 100× concentration, then diluted to 10× in aqueous hypotonic lysis buffer. Lysate from the human acute lymphoblastic leukemia cell line, MOLT-4, was treated for 1 hour at 25° C. with compound at a final 1× concentration. […] Following, lysate was denatured in guanidine hydrochloride, and subunits bound to probe were isolated with streptavidin-conjugated sepharose beads. Individual subunits (e.g., β5, LMP7, LMP2, MECL-1) were probed with subunit-specific primary antibodies, followed by HRP-conjugated secondary antibodies. A chemiluminescent substrate was used to generate signal associated with HRP binding, which was detected on a plate reader. Luminescent signal was normalized to protein content, then, percent activity calculated relative to DMSO-treated controls to generate IC50 curves.

Solubility pH 7 = settings: pH 7, aqueous buffer
[2] = molecular target: T2, proteasome subunit β5 (beta5) (Homo sapiens, UniProt P28074); assay: Proteasome active-site ELISA (ProCISE), beta5, MOLT-4 lysate; type: biochemical; settings: MOLT4 lysate, human, 1 h continuous treatment, 25° C.
T2 construct: Lysate from the human acute lymphoblastic leukemia cell line, MOLT-4; endogenous in cells; host or cells: MOLT-4
Experimental: as §1

`COc1ccc(C[C@H](NC(=O)[C@@H](C)NC(=O)[C@H]2CC[C@@H](O)CC2)C(=O)N[C@@H](CC2=CCCCC2)C(=O)[C@@]2(C)CO2)cc1` [Compound C-1097, (1s,4S)-N-((R)-1-(((S)-1-(((S)-3-(cyclohex-1-en-1-yl)-1-((R)-2-methyloxiran-2-yl)-1-oxopropan-2-yl)amino)-3-(4-methoxyphenyl)-1-oxopropan-2-yl)amino)-1-oxopropan-2-yl)-4-hydroxycyclohexanecarboxamide] gave an IC50 [1] of 21.6 nM, a solubility (Solubility pH 7) of 256 µg/mL (≈ 0.439 mM) and an IC50 [2] of 322 nM.
Work on `C[C@@H](NC(=O)[C@H]1CC[C@H](O)CC1)C(=O)N[C@@H](Cc1ccc(C#N)cc1)C(=O)N[C@@H](CC1CCCC1)C(=O)[C@@]1(C)CO1` [Compound C-1103, (1r,4R)-N-((R)-1-(((S)-3-(4-cyanophenyl)-1-(((S)-3-cyclopentyl-1-((R)-2-methyloxiran-2-yl)-1-oxopropan-2-yl)amino)-1-oxopropan-2-yl)amino)-1-oxopropan-2-yl)-4-hydroxycyclohexanecarboxamide] yielded an IC50 [1] of 38.7 nM, a solubility (Solubility pH 7) of 2150 µg/mL (≈ 3.79 mM) and an IC50 [2] of 1960 nM.
For `COc1ccc(C[C@H](NC(=O)[C@H](CO)NC(=O)CN2CCOCC2)C(=O)N[C@@H](CC2=CCCCC2)C(=O)[C@@]2(C)CO2)cc1` [Compound C-1104, (S)-N-((S)-3-(cyclohex-1-en-1-yl)-1-((R)-2-methyloxiran-2-yl)-1-oxopropan-2-yl)-2-((S)-3-hydroxy-2-(2-morpholinoacetamido)propanamido)-3-(4-methoxyphenyl)propanamide], the IC50 [1] was 72.4 nM, the solubility (Solubility pH 7) was 3270 µg/mL (≈ 5.44 mM) and the IC50 [2] was 2210 nM.
In the case of `C[C@@H](NC(=O)[C@H]1CC[C@H](O)CC1)C(=O)N[C@@H](Cc1ccc2[nH]cnc2c1)C(=O)N[C@@H](CC1CCCC1)C(=O)[C@@]1(C)CO1` [Compound C-1105, (1r,4R)-N-((R)-1-(((S)-3-(1H-benzo[d]imidazol-5-yl)-1-(((S)-3-cyclopentyl-1-((R)-2-methyloxiran-2-yl)-1-oxopropan-2-yl)amino)-1-oxopropan-2-yl)amino)-1-oxopropan-2-yl)-4-hydroxycyclohexanecarboxamide], the IC50 [1] is reported as 49.5 nM, the solubility (Solubility pH 7) is reported as 5690 µg/mL (≈ 9.79 mM) and the IC50 [2] is reported as 3230 nM.
`CC[C@H](NC(=O)CN1CCOCC1)C(=O)N[C@@H](Cc1ccc(OC)cc1)C(=O)N[C@@H](CC1CCCC1)C(=O)[C@@]1(C)CO1` [Compound C-1106, (S)-N-((S)-1-(((S)-3-cyclopentyl-1-((R)-2-methyloxiran-2-yl)-1-oxopropan-2-yl)amino)-3-(4-methoxyphenyl)-1-oxopropan-2-yl)-2-(2-morpholinoacetamido)butanamide] gave an IC50 [1] of 49.8 nM, a solubility (Solubility pH 7) of 960 µg/mL (≈ 1.64 mM) and an IC50 [2] of 284 nM.
`COc1ccc(C[C@H](NC(=O)[C@H](CO)NC(=O)CN2CCOCC2)C(=O)N[C@@H](CC2=CCCCC2)C(=O)[C@@]2(C)CO2)cc1O` [Compound C-1109, (S)-N-((S)-3-(Cyclohex-1-en-1-yl)-1-((R)-2-methyloxiran-2-yl)-1-oxopropan-2-yl)-2-((S)-3-hydroxy-2-(2-morpholinoacetamido)propanamido)-3-(3-hydroxy-4-methoxyphenyl)propanamide] gave an IC50 [1] of 181 nM, a solubility (Solubility pH 7) of 3820 µg/mL (≈ 6.2 mM) and an IC50 [2] of 4090 nM.
For `C[C@]1(C(=O)[C@H](CC2=CCCCC2)NC(=O)[C@H](Cc2ccc(S(C)(=O)=O)cc2)NC(=O)[C@H](CO)NC(=O)CN2CCOCC2)CO1` [Compound C-1110, (S)-N-((S)-3-(Cyclohex-1-en-1-yl)-1-((R)-2-methyloxiran-2-yl)-1-oxopropan-2-yl)-2-((S)-3-hydroxy-2-(2-morpholinoacetamido)propanamido)-3-(4-(methylsulfonyl)phenyl)propanamide], the IC50 [1] was 217 nM, the solubility (Solubility pH 7) was 8380 µg/mL (≈ 12.9 mM) and the IC50 [2] was 4340 nM.

Reference: patent USRE47302E1 (ONYX THERAPEUTICS INC., priority 2013, dated 2019)
